The subject of the assay is hyperlipidemia of SD rats. As to the kind of experiment: Therapeutic effect on hyperlipidemia of SD rats (lipid emulsion model). In kind it is in vivo. Particulars: for CHO (serum cholesterol) / HDL-C (high density lipoprotein) / LDL-C (low density lipoprotein) / TG (serum triglyceride): 21 days of continuous administration with lipid emulsion, fasted 12 h, X ± SD, 5 animals per group, serum; for reduction ratio of cholesterol (blood lipid-reducing effect) / blood lipid-reducing effect (in words): 21 days; for reduction ratio of cholesterol (blood lipid-reducing effect): (CHO of Model group - CHO of pharmaceutical-administrated group)/CHO of Model group*100%; for blood lipid-reducing effect (in words): hyperlipidemic SD rats, as shown by Table 1. The method, then:
1. Therapeutic Effect on Hyperlipidemia of SD Rats
Preparation process of lipid emulsion: 500 g of lard oil was taken, placed in a container, and heated to melt. When the temperature rose to 100° C., 200 g of cholesterol was added. After complete dissolution, 20 g of propylthiouracil was further added. The resulted mixture was stirred well, and added with 500 ml of Tween 80 after dissolution, resulting in an oil phase. At the same time, 600 mL of distilled water and 400 mL of 1,2-propanediol were taken and heated to 60° C. in a water bath, and then was added with 40 g of sodium deoxycholate. The resulted mixture was stirred well until complete dissolution was achieved, so as to give an aqueous phase. The aqueous phase was added into the oil phase and mixed well to give a lipid emulsion.
Process for modeling: Animals were fed adaptively for 3 days. Then, according to the body weight, 5 animals were selected as control and the remaining animals were intragastrically administered with the lipid emulsion during 9:00 to 11:00 am every day with 1 mL/100 g body weight for 2 weeks. After fasted for 12 hours, 1 mL of blood was collected from the orbits of the animals, and was determined by Hitachi Automatic Biochemical Analyzer 7080 for serum cholesterol (CHO), triglyceride (TG), low density lipoprotein (LDL-C) and high density lipoprotein (HDL-C). The animals having 4-7 mmol/L of CHO were used in the experiments.
The animals were continued with the intragastric administration of the lipid emulsion, and at the same time, the pharmaceutical-administered groups were administrated with the corresponding doses of pharmaceuticals, while the Model group was administrated with an equal volume of the solvent. The animals were administrated with the lipid emulsion in the morning and pharmaceuticals in the afternoon. The animals were measured for the body weight every Monday, and were observed. After 21 days of continuous administration, the animals were fasted for 12 hours. Then, 1 mL of blood was collected from the orbits, and was determined by Hitachi Automated Biochemical Analyzer 7080 for serum cholesterol (CHO), triglyceride (TG), low density lipoprotein (LDL-C) and high density lipoprotein (HDL-C).
The controls used in this experiment comprised Compound A and Simvastatin (also referred to as Sim herein).
The formula for calculating the blood lipid-reducing effect is: (CHO of Model group —CHO of pharmaceutical-administrated group)/CHO of Model group*100%. […] In this experiment, the effects of the compounds obtained herein for regulating blood lipids can be determined by using the blood cholesterol reduction as the main indicator, with reference to the decrease of triglyceride.

`Cc1ccc(C)c(OCCCC(C)(C)C(=O)NCC(=O)c2ccc(O)cc2)c1` [Compound A, reference compound]: under “80 mg/kg”, the “CHO (serum cholesterol)” value is listed as 6.15 ± 2.12 mmol/L, the “HDL-C (high density lipoprotein)” value is 1.41 ± 0.28 mmol/L, the “LDL-C (low density lipoprotein)” value is 4.97 ± 1.07 mmol/L and the “TG (serum triglyceride)” value is given as 0.58 ± 0.11 mmol/L. The “reduction ratio of cholesterol (blood lipid-reducing effect)” value (from here on “reduction ratio of cholesterol”) (80 mg/kg) is 42.30%.
In the case of `CCC(C)(C)C(=O)O[C@H]1C[C@@H](C)C=C2C=C[C@H](C)[C@H](CC[C@@H]3C[C@@H](O)CC(=O)O3)[C@H]21` [Sim, Simvastatin, reference compound], under “10 mg/kg”, the “CHO (serum cholesterol)” value was 6.28 ± 0.76 mmol/L, the “HDL-C (high density lipoprotein)” value was found to be 1.65 ± 0.26 mmol/L, the “LDL-C (low density lipoprotein)” value is 4.54 ± 0.36 mmol/L and the “TG (serum triglyceride)” value was determined as 0.60 ± 0.07 mmol/L.
Consider `CC(=O)c1ccc(NC(=O)C(C)(C)Oc2ccc(Cl)cc2)cc1` [Compound 04], for which, under “80 mg/kg”, the “CHO (serum cholesterol)” value was 4.90 ± 1.09 mmol/L, the “HDL-C (high density lipoprotein)” value is given as 2.00 ± 0.52 mmol/L, the “LDL-C (low density lipoprotein)” value is 3.27 ± 1.34 mmol/L and the “TG (serum triglyceride)” value came to 0.50 ± 0.15 mmol/L. For the same molecule, under “80 mg/kg”, the “blood lipid-reducing effect (in words)” value is recorded as “significantly reduce the level of cholesterol” and the “reduction ratio of cholesterol” value is recorded as 54.03%.
In the case of `CC(=O)c1ccc(O)c(NC(=O)c2cccnc2)c1` [Compound 03], for the setting “80 mg/kg”, the “CHO (serum cholesterol)” value is on record as 4.56 ± 1.24 mmol/L, the “HDL-C (high density lipoprotein)” value was 1.81 ± 0.27 mmol/L, the “LDL-C (low density lipoprotein)” value is 3.14 ± 1.06 mmol/L and the “TG (serum triglyceride)” value came out at 0.71 ± 0.16 mmol/L. For the setting “80 mg/kg”, the “blood lipid-reducing effect (in words)” value is on record as “significantly reduce the level of cholesterol” and the “reduction ratio of cholesterol” value was determined as 57.22%.
In the case of `CC(=O)c1ccc(O)c(NC(=O)C(C)(C)CCCOc2cc(C)ccc2C)c1` [Compound 02], where the note is “80 mg/kg”, the “CHO (serum cholesterol)” value is on record as 4.86 ± 1.08 mmol/L, the “HDL-C (high density lipoprotein)” value is recorded as 1.94 ± 0.49 mmol/L, the “LDL-C (low density lipoprotein)” value stood at 3.18 ± 0.71 mmol/L and the “TG (serum triglyceride)” value worked out at 0.51 ± 0.19 mmol/L. For the same molecule, under “80 mg/kg”, the “blood lipid-reducing effect (in words)” value is on record as “significantly reduce the level of cholesterol” and the “reduction ratio of cholesterol” value worked out at 54.40%.
As for `CC(=O)c1ccc(NC(=O)C(C)(C)CCCOc2cc(C)ccc2C)cc1` [Compound 01], under “80 mg/kg”, the “HDL-C (high density lipoprotein)” value stood at 2.02 ± 0.27 mmol/L, the “LDL-C (low density lipoprotein)” value was 3.07 ± 1.25 mmol/L, the “TG (serum triglyceride)” value came to 0.47 ± 0.27 mmol/L and the “blood lipid-reducing effect (in words)” value was “significantly reduce the level of cholesterol”. Also, the “reduction ratio of cholesterol” value (80 mg/kg) is given as 59.75%.
Turning to `CC(=O)c1ccc(O)c(OC(=O)c2cccnc2)c1` [Compound 05], where the note is “80 mg/kg”, the “CHO (serum cholesterol)” value was determined as 4.63 ± 0.41 mmol/L, the “HDL-C (high density lipoprotein)” value came to 1.95 ± 0.50 mmol/L, the “LDL-C (low density lipoprotein)” value is 3.12 ± 0.34 mmol/L and the “TG (serum triglyceride)” value was found to be 0.56 ± 0.23 mmol/L. Also, for the setting “80 mg/kg”, the “blood lipid-reducing effect (in words)” value is “significantly reduce the level of cholesterol” and the “reduction ratio of cholesterol” value amounted to 56.56%.

The values above are taken from patent US10800733B2, “Acetophenone compound, preparation method therefor, and application thereof in blood lipid regulation” (Shanghai Bioenergy Medicine Science & Technology Co., Ltd., priority 2017, dated 2020).
